# Experimental data reported in patent US9220775B2, “Binding molecules specific for HER3 and uses thereof” (Medlmmune LLC, priority 2011, dated 2015).
# Assays:
# [1] = system: HER3, pHER3 and pAKT in SW620, SW480, Colo205, LOVO, HCT15 and Caco-2 cells; test: HRG ligand-dependent signaling in CRC tumor cell lines (Western blot); type: cell-based, human; details: antibodies 10 μg/mL, gefitinib 5 μM, HRG 50 ng/mL
# Description: In the presence of the HER3 ligand heregulin (HRG), HER3 heterodimerizes with EGFR or HER2, which leads to phosphorylation of HER3 and transmission of an oncogenic signal via phosphoinositide 3 kinase (PI3K) and protein kinase B (PKB), also known as AKT. A collection of CRC models were characterized to determine which receptor tyrosine kinase, EGFR or HER2, is the major driver of signaling through HER3. […] Briefly, cells were seeded into 24-well plates at a density of 1.5×10^5 cells per well. […] After 5-6 hours of incubation at 37° C., HRG was added at 50 ng/mL into one set of cells for 15 minutes at 37° C. All cells were then washed with cold PBS and lysed by the addition of 60 μL of 2×SDS (sodium dodecyl sulfate) sample buffer (Invitrogen). Lysates were transferred to 1.5 mL tubes and boiled for 5 minutes followed by chilling on ice for 2 minutes. Equal volumes (20 μL) of protein samples were resolved in NuPAGE Novex Bis-Tris gels (Invitrogen) before transfer to polyvinylidene fluoride (PVDF) membranes (Invitrogen). […] After washing, protein bands were detected on X-ray film by using SuperSignal West Pico Chemiluminescent Substrate (Pierce/Thermo Scientific).
# BT-474 xenograft tumors = test: Orthotopic human BT-474 breast cancer xenograft model; type: in vivo, mouse; details: antibodies 30 mg/kg, lapatinib 100 mg/kg oral
# Description: (§1) Orthotopic xenografts were established by injecting 1×10^7 cells per mouse (suspended in 50% matrigel) into the mammary fat pad on the right flank of 4 to 6-week-old athymic nu/nu mice. Estrogen pellets (0.36 mg) were placed under the skin of the left flank 1-2 days before cell injection. […] Lapatinib was administered by oral gavaging at 100 mg per kilogram body weight. Caliper measurements were used to calculate tumor volumes using the formula: tumor volume=π÷6(length×width×width) • for tumors grown in mice.
# [2] = system: MDA-MB-361 xenograft tumors; test: Orthotopic human MDA-MB-361 breast cancer xenograft model; type: in vivo, mouse; details: 2C2-YTE 30 mg/kg, trastuzumab and rhuMAb 2C4 10 mg/kg, lapatinib 100 mg/kg twice daily
# Description: as §1, with “5×10^6” for “1×10^7”
# MCF-7 xenograft tumors = test: Orthotopic human MCF-7 breast cancer xenograft model; type: in vivo, mouse; details: antibodies 10 mg/kg, paclitaxel 10 mg/kg i.v. every second day for ten days
# Description: as §1, with “Human MCF-7 breast cancer cells were maintained at 37° C. in a 5% CO2 incubator in Optimem medium containing glutamax, 2.4/L sodium bicarbonate, Hepes and 5% fetal bovine serum. Orthotopic” for “Orthotopic”, “5×10^6” for “1×10^7”, “Paclitaxel” for “Lapatinib”, “intravenously” for “by oral gavaging”, “10” for “100”
# Daudi cells = test: CDC assay against Daudi cells; type: cell-based; details: CD20-expressing cells, data not shown
# Description: ADCC is one recognized way through which a monoclonal antibody can confer its anti-tumor efficacy in vivo. […] 2C2-YTE was tested in CDC assays using human serum as a source of complement.
# SkBR3 cells = test: CDC assay with human serum as source of complement; type: cell-based; details: any concentration, data not shown
# Source text: ADCC is one recognized way through which a monoclonal antibody can confer its anti-tumor efficacy in vivo.
Compound,"HRG ligand-dependent signaling (HER3, pHER3, pAKT) [1]",Anti-tumor efficacy [2],other results
COc1cc2ncnc(Nc3ccc(F)c(Cl)c3)c2cc1OCCCN1CCOCC1 [gefitinib],no effect,–,–
CS(=O)(=O)CCNCc1ccc(-c2ccc3ncnc(Nc4ccc(OCc5cccc(F)c5)c(Cl)c4)c3c2)o1 [lapatinib],–,showed anti-tumor efficacy,Anti-tumor efficacy (BT-474 xenograft tumors): tumor stasis
CC(=O)O[C@H]1C(=O)[C@@]2(C)[C@H]([C@H](OC(=O)c3ccccc3)[C@]3(O)C[C@H](OC(=O)[C@H](O)[C@@H](NC(=O)c4ccccc4)c4ccccc4)C(C)=C1C3(C)C)[C@]1(OC(C)=O)CO[C@@H]1C[C@@H]2O [paclitaxel],–,–,Anti-tumor efficacy (MCF-7 xenograft tumors): clear anti-tumor efficacy
pertuzumab [rhuMAb 2C4],inhibit HRG ligand-dependent signaling,showed anti-tumor efficacy,–
rituximab [reference compound],–,–,CDC activity (Daudi cells): substantial cell-kill activity; CDC activity (SkBR3 cells): None of the antibodies including 2C2-YTE showed any detectable CDC activity
